Source: patent US6667387B1, “HCV core peptides” (priority 1992, dated 2003)
Ends that are not written are not given here.

Tests used:
[1] = tested on: antibodies in sera from HCV-seropositive donors; experiment: ELISA with HCV antibody-positive sera (biotinylated peptides on streptavidin- or avidin-coated plates, unbiotinylated peptides coated directly); assay type: binding, human; conditions: for PEPTIDE ELISA (O.D.): Table 12, biotinylated 20-mers
Outline: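 Peptides coated either directly at 2–5 or 3 μg/ml in carbonate buffer pH 9.6, or biotinylated at 1 μg/ml on streptavidin-coated wells (3 μg/ml). Plates casein-blocked, then human sera (1:100 or 1:20) incubated 1 h at 37° C. Bound antibody detected with HRP anti-human Ig/TMB, read as OD450.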

[2] = ELISA with seronegative / negative control sera (specificity); assay type: binding, human
Outline: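 Specificity readout is OD at 450 nm (HRP goat anti-human Ig, TMB/H2O2, sulfuric acid stop), with ≥0.250 counted positive. Seronegative donor sera (typically 1:100, 1 h, 37° C) were applied to casein-blocked wells coated with peptide directly or via streptavidin capture of biotinylated peptide.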

Q: What does the source list for IIPDREVLYREFDEMEECSQ?
A: optical density (450 nm) ([1]; Table 4F, serum 8315, 20-fold dilution): 2.672; optical density (450 nm) ([1]; Table 4F, serum 8316, 20-fold dilution): 0.367; optical density (450 nm) ([1]; Table 4F, serum 8317, 20-fold dilution): 1.634; optical density (450 nm) ([1]; Table 4F, serum 8318, 20-fold dilution): 2.431; optical density (450 nm) ([1]; Table 4F, serum 8320, 20-fold dilution): 0.896; optical density (450 nm) ([1]; Table 4F, serum 8321, 20-fold dilution): 0.457; optical density (450 nm) ([1]; Table 4F, serum 8326, 20-fold dilution): 2.540; optical density (450 nm) ([1]; Table 5, sample 8242 (positive), peptide concentration 0.01 micrograms per milliliter, listed as HCV peptide IX): 0.215; optical density (450 nm) ([1]; Table 5, sample 8242 (positive), peptide concentration 0.03 micrograms per milliliter, listed as HCV peptide IX): 0.496; optical density (450 nm) ([1]; Table 5, sample 8242 (positive), peptide concentration 0.1 micrograms per milliliter, listed as HCV peptide IX): 0.911; optical density (450 nm) ([1]; Table 5, sample 8242 (positive), peptide concentration 0.3 micrograms per milliliter, listed as HCV peptide IX): 0.795; optical density (450 nm) ([1]; Table 5, sample 8242 (positive), peptide concentration 1.0 micrograms per milliliter, listed as HCV peptide IX): 0.777; optical density (450 nm) ([1]; Table 5, sample 8242 (positive), peptide concentration 3.0 micrograms per milliliter, listed as HCV peptide IX): 0.791; optical density (450 nm) ([1]; Table 5, sample 8243 (positive), peptide concentration 0.01 micrograms per milliliter, listed as HCV peptide IX): 0.639; optical density (450 nm) ([1]; Table 5, sample 8243 (positive), peptide concentration 0.03 micrograms per milliliter, listed as HCV peptide IX): 1.421; optical density (450 nm) ([1]; Table 5, sample 8243 (positive), peptide concentration 0.1 micrograms per milliliter, listed as HCV peptide IX): 1.834; optical density (450 nm) ([1]; Table 5, sample 8243 (positive), peptide concentration 0.3 micrograms per milliliter, listed as HCV peptide IX): 1.892; optical density (450 nm) ([1]; Table 5, sample 8243 (positive), peptide concentration 1.0 micrograms per milliliter, listed as HCV peptide IX): 1.953; optical density (450 nm) ([1]; Table 5, sample 8243 (positive), peptide concentration 3.0 micrograms per milliliter, listed as HCV peptide IX): 1.959; optical density (450 nm) ([1]; Table 5, sample 8320 (positive), peptide concentration 0.01 micrograms per milliliter, listed as HCV peptide IX): 0.461; optical density (450 nm) ([1]; Table 5, sample 8320 (positive), peptide concentration 0.03 micrograms per milliliter, listed as HCV peptide IX): 1.007; optical density (450 nm) ([1]; Table 5, sample 8320 (positive), peptide concentration 0.1 micrograms per milliliter, listed as HCV peptide IX): 1.244; optical density (450 nm) ([1]; Table 5, sample 8320 (positive), peptide concentration 0.3 micrograms per milliliter, listed as HCV peptide IX): 1.798; optical density (450 nm) ([1]; Table 5, sample 8320 (positive), peptide concentration 1.0 micrograms per milliliter, listed as HCV peptide IX): 0.802; optical density (450 nm) ([1]; Table 5, sample 8320 (positive), peptide concentration 3.0 micrograms per milliliter, listed as HCV peptide IX): 1.779; optical density (450 nm) ([1]; Table 5, sample 8326 (positive), peptide concentration 0.01 micrograms per milliliter, listed as HCV peptide IX): 1.812; optical density (450 nm) ([1]; Table 5, sample 8326 (positive), peptide concentration 0.03 micrograms per milliliter, listed as HCV peptide IX): 2.193; optical density (450 nm) ([1]; Table 5, sample 8326 (positive), peptide concentration 0.1 micrograms per milliliter, listed as HCV peptide IX): 2.284; optical density (450 nm) ([1]; Table 5, sample 8326 (positive), peptide concentration 0.3 micrograms per milliliter, listed as HCV peptide IX): 2.271; optical density (450 nm) ([1]; Table 5, sample 8326 (positive), peptide concentration 1.0 micrograms per milliliter, listed as HCV peptide IX): 2.271; optical density (450 nm) ([1]; Table 5, sample 8326 (positive), peptide concentration 3.0 micrograms per milliliter, listed as HCV peptide IX): 2.284; optical density (450 nm) ([1]; Table 8, serum 8243 (HCV), Avidin): 1.213; optical density (450 nm) ([1]; Table 8, serum 8247 (HCV), Avidin): 0.756; optical density (450 nm) ([1]; Table 8, serum 8248 (HCV), Avidin): 0.047; optical density (450 nm) ([1]; Table 8, serum 8269 (HCV), Avidin): 0.051; optical density (450 nm) ([1]; Table 8, serum 8273 (HCV), Avidin): 0.053; optical density (450 nm) ([1]; Table 8, serum 8278 (HCV), Avidin): 0.074; optical density (450 nm) ([1]; Table 8, serum 8285 (HCV), Avidin): 0.270; optical density (450 nm) ([1]; Table 8, serum 8290 (HCV), Avidin): 0.048; optical density (450 nm) ([1]; Table 8, serum 8291 (HCV), Avidin): 0.052; PEPTIDE ELISA (O.D.) ([1]; serum 0843): 2.206; PEPTIDE ELISA (O.D.) ([1]; serum 8240): 0.142; PEPTIDE ELISA (O.D.) ([1]; serum 8241): 0.421; PEPTIDE ELISA (O.D.) ([1]; serum 8242): 2.114; PEPTIDE ELISA (O.D.) ([1]; serum 8332): 0.392; PEPTIDE ELISA (O.D.) ([1]; serum 8339): 2.497; PEPTIDE ELISA (O.D.) ([1]; serum 8350): 1.779; PEPTIDE ELISA (O.D.) ([1]; serum 8377): 2.360; PEPTIDE ELISA (O.D.) ([1]; serum 8378): 1.859; PEPTIDE ELISA (O.D.) ([1]; serum 8388): 2.300; antibody binding to the 20-mers ([1]; serum 8241): very strong; optical density (450 nm) ([2]; Table 4F, negative serum): 0.005; optical density (450 nm) ([2]; Table 5, sample 1747 (negative), peptide concentration 0.01 micrograms per milliliter, listed as HCV peptide IX): 0.043; optical density (450 nm) ([2]; Table 5, sample 1747 (negative), peptide concentration 0.03 micrograms per milliliter, listed as HCV peptide IX): 0.044; optical density (450 nm) ([2]; Table 5, sample 1747 (negative), peptide concentration 0.1 micrograms per milliliter, listed as HCV peptide IX): 0.042; optical density (450 nm) ([2]; Table 5, sample 1747 (negative), peptide concentration 0.3 micrograms per milliliter, listed as HCV peptide IX): 0.046; optical density (450 nm) ([2]; Table 5, sample 1747 (negative), peptide concentration 1.0 micrograms per milliliter, listed as HCV peptide IX): 0.049; optical density (450 nm) ([2]; Table 5, sample 1747 (negative), peptide concentration 3.0 micrograms per milliliter, listed as HCV peptide IX): 0.051; optical density (450 nm) ([2]; Table 5, sample 1781 (negative), peptide concentration 0.01 micrograms per milliliter, listed as HCV peptide IX): 0.049; optical density (450 nm) ([2]; Table 5, sample 1781 (negative), peptide concentration 0.03 micrograms per milliliter, listed as HCV peptide IX): 0.048; optical density (450 nm) ([2]; Table 5, sample 1781 (negative), peptide concentration 0.1 micrograms per milliliter, listed as HCV peptide IX): 0.047; optical density (450 nm) ([2]; Table 5, sample 1781 (negative), peptide concentration 0.3 micrograms per milliliter): 0.051; optical density (450 nm) ([2]; Table 5, sample 1781 (negative), peptide concentration 1.0 micrograms per milliliter, listed as HCV peptide IX): 0.051; optical density (450 nm) ([2]; Table 5, sample 1781 (negative), peptide concentration 3.0 micrograms per milliliter): 0.053; optical density (450 nm) ([2]; Table 8, serum 1782 (blood donor), Avidin): 0.062; optical density (450 nm) ([2]; Table 8, serum 1784 (blood donor), Avidin): 0.050; optical density (450 nm) ([2]; Table 8, serum 1785 (blood donor), Avidin): 0.050; optical density (450 nm) ([2]; Table 8, serum 1794 (blood donor), Avidin): 0.098
